Results on two compounds are retold here after patent publication US20140248291A1, “Modulation of Cellular Migration” (THE UAB RESEARCH FOUNDATION, priority 2011, published 2014).

What is called IC50 is the concentration that inhibits the measured activity by half. As a reminder, the Ki is the dissociation constant of the complex between target and ligand, obtained from inhibition or displacement.

Experiment [1] deals with BK-induced ventral root depolarizations. The following applies: rat spinal cord and tail preparation, n=3; cited from earlier work.
Another experiment has as its system B2 receptor. The conditions noted are these: cited from earlier work.
The next experiment concerns the target T1, rat B2R (Rattus norvegicus, UniProt P25023).
T1 sequence (P25023 1-396): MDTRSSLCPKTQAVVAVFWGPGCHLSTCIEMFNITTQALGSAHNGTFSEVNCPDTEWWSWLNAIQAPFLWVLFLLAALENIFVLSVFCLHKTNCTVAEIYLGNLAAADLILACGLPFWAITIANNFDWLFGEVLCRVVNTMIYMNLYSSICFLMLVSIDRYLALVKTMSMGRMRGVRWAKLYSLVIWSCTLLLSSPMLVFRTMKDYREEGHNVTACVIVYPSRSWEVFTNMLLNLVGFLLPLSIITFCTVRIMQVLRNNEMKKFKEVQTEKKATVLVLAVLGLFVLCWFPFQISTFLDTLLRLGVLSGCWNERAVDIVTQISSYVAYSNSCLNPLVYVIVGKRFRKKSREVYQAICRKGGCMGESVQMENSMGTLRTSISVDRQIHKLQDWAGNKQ
More on the design: expressed in transfected cells; host or cells: Cos-7 cells. The following applies: Cos-7 cells expressing the rat receptor, n=3; read-out: KI, displacement of [3H]-BK binding; cited from earlier work.

The next experiment has as its system D54-EGFP tumor cells. The experiment is described as follows: tumor invasion/growth in organotypic mouse brain slice cultures. The experiment is classed as cell-based, human. How it is done:
Slice cultures were prepared from brains of P13-P16 BALB/c scid mice (Jackson Laboratory). Coronal brain sections 300 μm thick were sliced with a Vibrotome 3000 sectioning system in ice cold artificial saline. Brain slices were transferred into filter inserts with a polycarbonate membrane (Falcon, BD, pore size 0.45 μm). Filters were placed into 6-well plates containing 1 ml of DMEM supplemented with 8% FCS, 0.2 mM glutamine, 100 U/mL penicillin, and […] streptomycin. After overnight repose the medium was changed to cultivation medium containing 25% heat-inactivated horse serum, 50 mM sodium bicarbonate, 2% glutamine, 25% Hank's balanced salt solution, […] insulin (all from Gibco), 2.46 mg/mL glucose (Sigma Aldrich), 0.8 mg/mL vitamin C (Sigma Aldrich), 100 U/mL penicillin, […] streptomycin (Sigma Aldrich), and 5 mM Tris in DMEM (Gibco). At day 3 of culturing approximately 3000 D54-EGFP tumor cells in a volume of 1 μl were implanted per organotypic brain slice. Cells were injected using a 1 μl hemilton syringe mounted to a micromanipulator. The cell suspension was slowly injected over 30 seconds and subsequently the syringe was slowly pulled out. Gliomas were always inoculated into the right cortex. […] The tumor area was determined using ImageJ software (available from rsbweb.nih.gov). Tumor growth was calculated between day 4 and day 11 of culturing.

For a further experiment, the system named is D54-MG-GFP cells. The experiment is described as follows: slice invasion assay, acute rat brain slices. The class given is cell-based, human. How it is done: Experiments were performed on male and female Sprague-Dawley rats and were approved by the University of Alabama Institutional Animal Care and Use Committee. 17-22 days old pups were decapitated. Meninges were stripped, brain was taken out and put in ice-cold bath ACSF. Tissue was sliced using Vibrotome 3000 sectioning system. 300 μm thick slices were let recover in ACSF for 1 hour at room temperature, followed by recovery in ACSF at 37° C. in […] for 1 hour. CD31 antibody (BD Biosciences, Pharminogen, San Diego, Calif.) that labels blood vessels was added during the latter recovery period. Slices were then transferred into transwell migration cell culture inserts (BD Biosciences, San Jose, Calif.) with 8 μm pores that were pretreated with Vitronectin and blocked as described above. 50,000 D54-EGFP MG cells were then seeded on top of the slices and allowed to migrate/invade into the tissue for 2 hours at 37° C. During that period, slices were treated with 1 μM BK, 1 μM BK+5 μM HOE-140 or 5 μM HOE-140 added to the bottom of migration chamber in order to create a concentration gradient, similar to in vitro migration/invasion assay (FIG. 5C). In control experiments, drug treatment was omitted. Following double washes with PBS, slices were fixed in 4% paraformaldehyde overnight at 4° C. The following day, samples were washed three times with PBS and the slices were mounted between two coverslips for imaging on an Olympus Fluoview confocal microscope with 60× objective.
Having established a dependence of migration and BK in vitro, the role of BK signaling in brain slices was examined, where the presence of neurons, glia and endothelial cells resemble the complex environment more reminiscent of the actual invasions of glioma cells in the human brain. To this end, acute brain slices of rat cortex, that can be maintained viable for many hours of investigation, were incubated with CD31 antibody to label blood vessels and seeded with D54-MG-GFP cells. Cells were allowed to migrate and invade for 2 hours in presence or absence of BK and in presence or absence of B2R antagonist HOE-140. The experimental set-up is illustrated in FIG. 5C. Representative confocal images of glioma cells invading into the slice in the presence of BK with and without antagonist HOE-140 added are shown in FIG. 5A, a, A, b and A, c. […] Similarly, most of the cells remained on the slices when treated only with B2R antagonist, as depicted in 40 μm cross-section in FIG. 5A, f. Data were analyzed by counting the number of glioma cells that attached to blood vessels in the presence of BK (77.4±4.1%, 391 cells analyzed), BK and antagonist HOE-140 (19.3±3.4%, 461 cells analyzed) or antagonist HOE-140 (42.7±4.2%, 452 cells analyzed) and compared with control (53.5±6.3%, 403 cells analyzed) where no drugs were added. […] Another important effect observed was that the glioma cells were invading deeper into the tissue in the presence of BK when compared to controls.

For the compound `CN(C)CCN(C)CCNC(=O)[C@@H]1CCCN1S(=O)(=O)c1ccc(NNC(=S)NC(c2ccccc2)c2ccccc2)c([N+](=O)[O-])c1` [Bradyzide], the IC50 in experiment [1] is 1.6 ± 0.05 nM. For the same compound, in the experiment on B2 receptor (45Ca efflux from NG108-15 cells), the Schild slope is listed as 1.05. Also, the “pKB, inhibition of B2 receptor-induced 45Ca efflux” value at B2 receptor (NG108-15 cells, n=5) is reported as 8.0±0.16. Moreover, at rat B2R, the Ki is 0.89 nM.

Take `N=C(N)NCCCC(NC(=O)[C@H](N)CCCNC(=N)N)C(=O)N1CCC[C@H]1C(=O)N1C[C@H](O)C[C@H]1C(=O)NCC(=O)N[C@@H](Cc1cccs1)C(=O)N[C@@H](CO)C(=O)N1Cc2ccccc2C[C@@H]1C(=O)N1C2CCCCC2C[C@H]1C(=O)N[C@H](CCCNC(=N)N)C(=O)O` (stereo partly drawn) [HOE-140, D-Arg-[Hyp^3, Thi^5, D-Tic^7, Oic^8]bradykinin]: the “tumor growth day 4 to day 11” value in the experiment with D54-EGFP tumor cells (BK and HOE-140 compared to control slices or HOE-140 alone) was “did not differ significantly”. Also, in the experiment on D54-EGFP tumor cells (HOE-140 (5 μM) and BK (1 μM) compared to BK alone), the “migration (spread) of GFP-expressing tumor cells” value is “significantly reduced migration”. In the experiment on D54-MG-GFP cells (1 μM BK + 5 μM HOE-140, 2 h, 461 cells analyzed), the “glioma cells attached to blood vessels” value is given as 19.3±3.4%. In the experiment with D54-MG-GFP cells (5 μM HOE-140 alone, 2 h, 452 cells analyzed), the “glioma cells attached to blood vessels” value was found to be 42.7±4.2%. In the experiment with D54-MG-GFP cells (HOE-140 alone), the “cells migrated up to 15 μm” value came out at 29.8%, the “cells migrated up to 20 μm” value is listed as 14.4%, the “cells migrated up to 25 μm” value turned out to be 3.5% and the “cells on top of the slice” value is 51.9%. Also, in the experiment on D54-MG-GFP cells (HOE-140 in addition to BK), the “cells migrated up to 15 μm” value is listed as 25.7%, the “cells migrated up to 20 μm” value is 15.4%, the “cells migrated up to 25 μm” value turned out to be 6.4% and the “cells remained on the top of the slice” value is given as 47.5%.
